According to patent US20210115104A1, “AMYLIN ANALOGUES” (Zealand Pharma A/S, priority 2015, published 2021):
Where two headings read alike, the source gives them in different places. *1 amine or outer side, *2 acyl side, *3 side chain or, on linkers, in order; H or OH if unused. Where a SMILES comes first, the peptide text is derived from it. Bridges are numbered along the chain shown (N, C = ends). [ ]: non-standard residue; d: D form. The star is where a group is joined. C20 diacid = O=C(O)CCCCCCCCCCCCCCCCCCC(=O)*; γGlu = O=C(O)[C@H](CCC(=O)[*:2])N[*:1]; Hyp = O=C(O)[C@@H]1C[C@@H](O)CN1; NMeI = CC[C@H](C)[C@H](NC)C(=O)O; Sar = CNCC(=O)O

What was measured:
[1] = target: T1, human calcitonin receptor (hCTR2) (Homo sapiens, UniProt P30988); test: hCTR2 cAMP assay (AlphaScreen) in COS7 cells; type: cell-based
T1 construct: expressed in transfected cells
T1 sequence (P30988 25-474): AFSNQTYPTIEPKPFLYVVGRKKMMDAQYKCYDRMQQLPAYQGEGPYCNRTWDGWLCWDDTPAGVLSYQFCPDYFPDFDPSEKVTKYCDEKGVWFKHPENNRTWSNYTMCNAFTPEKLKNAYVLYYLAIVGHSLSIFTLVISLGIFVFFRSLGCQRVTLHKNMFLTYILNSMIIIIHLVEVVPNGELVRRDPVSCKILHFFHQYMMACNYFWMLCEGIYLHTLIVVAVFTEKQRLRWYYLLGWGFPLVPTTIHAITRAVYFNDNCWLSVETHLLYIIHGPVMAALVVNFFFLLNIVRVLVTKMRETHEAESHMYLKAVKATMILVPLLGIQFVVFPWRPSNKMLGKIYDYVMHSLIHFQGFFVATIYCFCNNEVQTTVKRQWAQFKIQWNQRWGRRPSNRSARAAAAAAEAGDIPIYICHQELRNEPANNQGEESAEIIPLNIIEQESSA
How it was run: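 Stable hCTR2 clone in RAMP-naïve COS7 cells stimulated 15 min at 37 °C with increasing peptide concentrations in Tyrode buffer pH 7.4 containing IBMX and 0.1% casein. cAMP in lysates measured by AlphaScreen; EC50 from 4-parameter logistic fit.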

[2] = Assessment of chemical stability (RP-HPLC normalized purity); type: physicochemical; details: for Normalized purity after 7 days, 40° C., pH 4: pH 4, 0.2 mg/ml; for Normalized purity after 7 days, 40° C., pH 7.5: pH 7.5, 0.2 mg/ml; for Normalized purity after 7 days, 40° C., pH 9: pH 9, 0.2 mg/ml
How it was run: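 Peptides at 0.2 mg/ml in water adjusted to pH 4, 6, 7.5 or 9, incubated at 40° C for 7 days. Main-peak area-% by RP-HPLC (C8 ammonium formate or C18 TFA gradient, UV 220 nm), normalized to T=0 as 100.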

[3] = target: T2, human amylin receptor 3 (hAMYR3), hCTR2 co-expressed with hRAMP3 (Homo sapiens, UniProt O60896+P30988); test: hAMYR3 cAMP assay (AlphaScreen) in COS7 cells; type: cell-based
T2 construct: expressed in transfected cells
T2 sequence (P30988 25-474): T1 sequence (P30988 25-474)
T2 sequence (O60896 24-148 partner): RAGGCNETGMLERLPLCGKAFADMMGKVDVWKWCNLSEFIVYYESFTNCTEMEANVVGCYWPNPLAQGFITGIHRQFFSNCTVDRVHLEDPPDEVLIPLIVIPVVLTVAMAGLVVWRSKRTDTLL
How it was run: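 Stable COS7 clone co-expressing hCTR2 and hRAMP3 was exposed to increasing peptide concentrations in Tyrode buffer (pH 7.4) with 100 µM IBMX and 0.1% casein for 15 min at 37 °C. Lysate cAMP was measured by AlphaScreen; EC50 came from 4-parameter logistic fitting.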

[4] = cAMP induction, COS7 cells expressing hCTR2, Table 1, read-out: hCTR2 EC50
[5] = cAMP induction, COS7 cells expressing hAMYR3, Table 1, read-out: hAMYR3 EC50

EC50 [1, 4] [nM]	Normalized purity after 7 days, 40° C., pH 4 ([2]; 7 days, 40° C., Table 1)	Normalized purity after 7 days, 40° C., pH 7.5 ([2]; 7 days, 40° C., Table 1)	Normalized purity after 7 days, 40° C., pH 9 ([2]; 7 days, 40° C., Table 1)	EC50 [3, 5] [nM]	Normalized purity after 7 days, 40° C., pH 6 ([2]; pH 6, 0.2 mg/ml, 7 days, 40° C., Table 1)	SMILES	EC50 [1] [nM]	Normalized purity pH 4 (Table 5) ([2]; pH 4, repeat of Example 6 for pairs with/without Asn-Asn at 21-22)	Normalized purity pH 6 (Table 5) ([2]; pH 6, repeat of Example 6 for pairs with/without Asn-Asn at 21-22)	Normalized purity pH 7.5 (Table 5) ([2]; pH 7.5, repeat of Example 6 for pairs with/without Asn-Asn at 21-22)	Normalized purity pH 9 (Table 5) ([2]; pH 9, repeat of Example 6 for pairs with/without Asn-Asn at 21-22)	EC50 [3] [nM]
0.09	A (A = >90%)	B (B = 70-90%)	B (B = 70-90%)	0.12		CC[C@H](C)[C@@H](C(=O)N[C@@H](CC(C)C)C(=O)N[C@@H](CO)C(=O)N[C@@H](CO)C(=O)N[C@H](C(=O)N[C@@H](CCC(=O)O)C(=O)N[C@H](C(=O)NCC(=O)N[C@@H](CO)C(=O)N[C@@H](CO)C(=O)N[C@H](C(=O)N1C[C@H](O)C[C@H]1C(N)=O)[C@@H](C)O)C(C)C)[C@@H](C)O)N(C)C(=O)[C@H](C)NC(=O)CN(C)C(=O)[C@H](Cc1ccccc1)NC(=O)[C@H](CO)NC(=O)[C@H](CO)NC(=O)[C@H](CCCNC(=N)N)NC(=O)[C@H](CC(N)=O)NC(=O)[C@H](CC(C)C)NC(=O)[C@H](Cc1ccccc1)NC(=O)[C@H](Cc1c[nH]cn1)NC(=O)[C@H](C)NC(=O)[C@H](CC(C)C)NC(=O)[C@H](CCCNC(=N)N)NC(=O)[C@H](CCC(=O)O)NC(=O)[C@@H](NC(=O)[C@H](C)NC(=O)[C@@H]1CSSC[C@H](NC(=O)[C@H](CCCNC(=N)N)NC(=O)CC[C@H](NC(=O)CCCCCCCCCCCCCCCCCCC(=O)O)C(=O)O)C(=O)NCC(=O)N[C@@H]([C@@H](C)O)C(=O)N[C@@H](C)C(=O)N[C@@H]([C@@H](C)O)C(=O)N1)[C@@H](C)O [Compound 29, [19CD]-isoGlu-R-C( )-GTAT-C( )-ATERLAHFLNRSSF-Gly(Me)-A-Ile(Me)-LSSTEVGSST-Hyp-NH2] ({C20 diacid-γGlu}-RCGTATCATERLAHFLNRSSF[Sar]A[NMeI]LSSTEVGSST[Hyp]-NH2; disulfide 2-7)						
						CC[C@H](C)[C@@H](C(=O)N[C@@H](CC(C)C)C(=O)N[C@@H](CO)C(=O)N[C@@H](CO)C(=O)N[C@H](C(=O)N[C@@H](CCC(=O)O)C(=O)N[C@H](C(=O)NCC(=O)N[C@@H](CO)C(=O)N[C@@H](CC(N)=O)C(=O)N[C@H](C(=O)N1C[C@H](O)C[C@H]1C(N)=O)[C@@H](C)O)C(C)C)[C@@H](C)O)N(C)C(=O)[C@H](C)NC(=O)CN(C)C(=O)[C@H](Cc1ccccc1)NC(=O)[C@H](CC(N)=O)NC(=O)[C@H](CC(N)=O)NC(=O)[C@H](CO)NC(=O)[C@H](CO)NC(=O)[C@H](CCCNC(=N)N)NC(=O)[C@H](CCC(N)=O)NC(=O)[C@H](CC(C)C)NC(=O)[C@H](Cc1ccccc1)NC(=O)[C@H](Cc1c[nH]cn1)NC(=O)[C@H](C)NC(=O)[C@H](CC(C)C)NC(=O)[C@H](CCCNC(=N)N)NC(=O)[C@H](CCC(=O)O)NC(=O)[C@@H](NC(=O)[C@H](C)NC(=O)[C@@H]1CSSC[C@H](NC(=O)[C@H](CCCNC(=N)N)NC(=O)CC[C@H](NC(=O)CCCCCCCCCCCCCCCCCCC(=O)O)C(=O)O)C(=O)N[C@@H](CCC(N)=O)C(=O)N[C@@H]([C@@H](C)O)C(=O)N[C@@H](C)C(=O)N[C@@H]([C@@H](C)O)C(=O)N1)[C@@H](C)O [Compound 99, [19CD]-isoGlu-R-C( )-QTAT-C( )-ATERLAHFLQRSSNNF-Gly(Me)-A-Ile(Me)-LSSTEVGSNT-Hyp-NH2, reference compound] ({C20 diacid-γGlu}-RCQTATCATERLAHFLQRSSNNF[Sar]A[NMeI]LSSTEVGSNT[Hyp]-NH2; disulfide 2-7)	3.8	A (A = >90%)	A (A = >90%)	B (B = 70-90%)	B (B = 70-90%)	0.59
0.13	A (A = >90%)	A (A = >90%)	A (A = >90%)	0.28	A (A = >90%)	CC[C@H](C)[C@@H](C(=O)N[C@@H](CC(C)C)C(=O)N[C@@H](CO)C(=O)N[C@@H](CO)C(=O)N[C@H](C(=O)N[C@@H](CCC(=O)O)C(=O)N[C@H](C(=O)NCC(=O)N[C@@H](CO)C(=O)NCC(=O)N[C@H](C(=O)N1CCC[C@H]1C(N)=O)[C@@H](C)O)C(C)C)[C@@H](C)O)N(C)C(=O)[C@H](C)NC(=O)CN(C)C(=O)[C@H](Cc1ccccc1)NC(=O)[C@H](CO)NC(=O)[C@H](CO)NC(=O)[C@H](CCCNC(=N)N)NC(=O)[C@H](CCC(N)=O)NC(=O)[C@H](CC(C)C)NC(=O)[C@H](Cc1ccccc1)NC(=O)[C@H](CC(=O)O)NC(=O)[C@H](C)NC(=O)[C@H](CC(C)C)NC(=O)[C@H](CCCNC(=N)N)NC(=O)[C@H](CCC(N)=O)NC(=O)[C@@H](NC(=O)[C@H](C)NC(=O)[C@@H]1CSSC[C@H](NC(=O)[C@H](CCCNC(=N)N)NC(=O)CC[C@H](NC(=O)CCCCCCCCCCCCCCCCCCC(=O)O)C(=O)O)C(=O)N[C@@H](CC(N)=O)C(=O)N[C@@H]([C@@H](C)O)C(=O)N[C@@H](C)C(=O)N[C@@H]([C@@H](C)O)C(=O)N1)[C@@H](C)O [Compound 80, [19CD]-isoGlu-R-C( )-NTAT-C( )-ATQRLADFLQRSSF-Gly(Me)-A-Ile(Me)-LSSTEVGSGTP-NH2] ({C20 diacid-γGlu}-RCNTATCATQRLADFLQRSSF[Sar]A[NMeI]LSSTEVGSGTP-NH2; disulfide 2-7)						
